Measurements reported in publication PMC10180054, “Design, Synthesis and Biological Evaluation of Novel Pleuromutilin Derivatives Containing 6-Chloro-1-R-1H-pyrazolo[3,4-d]pyrimidine-4-amino Side Chain” (Molecules, 2023).
≈ marks a conversion by molar mass, not a printed value.

How the values were obtained:
[1] = system: S. aureus AD3; test: MIC/MBC by broth dilution (CLSI); type: cell-based; conditions: Staphylococcus aureus, S. aureus AD3 (clinical strain)
Procedure: (§1) The in vitro antimicrobial activity of the pleuromutilin derivatives was assessed against MRSA ATCC 43300, S. aureus ATCC 29213, S. aureus 144 and S. aureus AD3 according to the Clinical and Laboratory Standards Institute (CLSI). Tiamulin was used as a positive control drug. The results were summarized as the minimum inhibitory concentration (MIC) and the minimum bactericidal concentration (MBC) in Table 1 and Table 2. In addition, MIC results for the pleuromutilin derivatives against four Gram-negative bacteria are supplied in Tables S2 and S3.
(§2) The MIC and MBC values of the synthesized novel pleuromutilin derivatives against MRSA ATCC 43300, S. aureus ATCC 29213, S. aureus 144 and S. aureus AD3 were measured. Tiamulin was used as a positive control drug. The MIC and MBC values were manipulated by broth dilution according to the Clinical and Laboratory Standards (CLSI). Each compound to be measured was dissolved in a solution of 95% deionized water, 2.5% dimethyl sulfoxide (DMSO) and 2.5% Tween-80 with a concentration of 1280 µg/mL. Subsequently, serial twofold dilutions were made in a concentration range from 64 µg/mL to 0.0625 µg/mL. The working bacterial suspension was inoculated into each well, which provided the final inoculum density of 5 × 10^5 CFU/mL. Three parallel experiments were performed for each compound.
(§3) Overall, 25 µL of the bacterial solution from the wells with no obvious bacterial growth was inoculated on MH agar plates. Then, the inoculated MH agar plates were further cultured at 37 °C for 24 h.

[2] = system: S. aureus 144; test: MIC/MBC by broth dilution (CLSI); type: cell-based; conditions: Staphylococcus aureus; S. aureus 144 (clinical strain)
Procedure: as §1, §2, §3

[3] = system: S. aureus ATCC 29213; test: MIC/MBC by broth dilution (CLSI); type: cell-based; conditions: Staphylococcus aureus; for MBC: S. aureus ATCC 29213; for MIC: S. aureus ATCC 29213, broth dilution, 24 h, 37 °C
Procedure: as §1, §2, §3

[4] = system: MRSA ATCC 43300; test: MIC/MBC by broth dilution (CLSI); type: cell-based, Staphylococcus aureus; conditions: Staphylococcus aureus; for MBC: MRSA ATCC 43300, 99.9% of the bacteria killed; for MIC: MRSA ATCC 43300, broth dilution, 24 h, 37 °C, read-out: MIC
Procedure: as §1, §2, §3

C=C[C@]1(C)C[C@@H](OC(=O)CNc2nc(Cl)nc3c2cnn3-c2ccc(F)c(F)c2)[C@]2(C)[C@H](C)CC[C@]3(CCC(=O)[C@H]32)[C@@H](C)[C@@H]1O [Compound 22b, 22-[(6-Chloro-1-(3,4-difluorophenyl)-1H-pyrazolo[3,4-d]pyrimidine-4-yl)amino]-22-deoxypleuromutilin]
MBC ([1]; 24 h): > 64 µg/mL | MIC ([1]; 24 h): 8 µg/mL (≈ 12.5 µM) | MBC [2]: > 64 µg/mL | MIC [2]: 16 µg/mL (≈ 24.9 µM) | MBC ([3]; ATCC29213, 24 h): > 64 µg/mL | MIC ([3]; ATCC29213): 8 µg/mL (≈ 12.5 µM) | melting point: 130 to 132 °C | MBC [4]: > 64 µg/mL | MIC [4]: 16 µg/mL (≈ 24.9 µM)

C=C[C@]1(C)C[C@@H](OC(=O)CNc2nc(Cl)nc3c2cnn3-c2ccc(CC)cc2)[C@]2(C)[C@H](C)CC[C@]3(CCC(=O)[C@H]32)[C@@H](C)[C@@H]1O [Compound 16b, 22-[(6-Chloro-1-(4-ethylphenyl)-1H-pyrazolo[3,4-d]pyrimidine-4-yl)amino]-22-deoxypleuromutilin]
MBC [1]: > 64 µg/mL | MIC [1]: 16 µg/mL (≈ 25.2 µM) | MBC [2]: > 64 µg/mL | MIC [2]: 32 µg/mL (≈ 50.5 µM) | MBC ([3]; ATCC29213): > 64 µg/mL | MIC ([3]; ATCC29213): 32 µg/mL (≈ 50.5 µM) | melting point: 101 to 103 °C | MBC [4]: > 64 µg/mL | MIC [4]: 32 µg/mL (≈ 50.5 µM)

C=C[C@]1(C)C[C@@H](OC(=O)CSc2ccc(Nc3nc(Cl)nc4c3cnn4-c3cccc(Cl)c3)cc2)[C@]2(C)[C@H](C)CC[C@]3(CCC(=O)[C@H]32)[C@@H](C)[C@@H]1O [Compound 24c, 22-[4-(6-Chloro-1-(3-chlorophenyl)-1H-pyrazolo[3,4-d]pyrimidine-4-yl)amino-Phenylsulfanyl]-22-deoxypleuromutilin]
MIC [1]: > 64 µg/mL | MIC [2]: > 64 µg/mL | MIC ([3]; ATCC29213): > 64 µg/mL | melting point: 121 to 124 °C | MIC [4]: > 64 µg/mL

C=C[C@]1(C)C[C@@H](OC(=O)CNc2nc(Cl)nc3c2cnn3-c2ccc(Cl)cc2)[C@]2(C)[C@H](C)CC[C@]3(CCC(=O)[C@H]32)[C@@H](C)[C@@H]1O [Compound 25b, 22-[(6-Chloro-1-(4-chlorophenyl)-1H-pyrazolo[3,4-d]pyrimidine-4-yl)amino]-22-deoxypleuromutilin]
MIC [1]: > 64 µg/mL | MIC [2]: > 64 µg/mL | MIC ([3]; ATCC29213): > 64 µg/mL | melting point: 107 to 111 °C | MIC [4]: > 64 µg/mL

C=C[C@]1(C)C[C@@H](OC(=O)CNc2nc(Cl)nc3c2cnn3-c2cc(F)ccc2F)[C@]2(C)[C@H](C)CC[C@]3(CCC(=O)[C@H]32)[C@@H](C)[C@@H]1O [Compound 21b, 22-[(6-Chloro-1-(2,5-difluorophenyl)-1H-pyrazolo[3,4-d]pyrimidine-4-yl)amino]-22-deoxypleuromutilin]
MIC [1]: > 64 µg/mL | MIC [2]: > 64 µg/mL | MIC ([3]; ATCC29213): > 64 µg/mL | melting point: 121 to 125 °C | MIC [4]: > 64 µg/mL

C=C[C@]1(C)C[C@@H](OC(=O)CNc2nc(Cl)nc3c2cnn3-c2cccc(C)c2)[C@]2(C)[C@H](C)CC[C@]3(CCC(=O)[C@H]32)[C@@H](C)[C@@H]1O [Compound 12b, 22-[(6-Chloro-1-(3-methylphenyl)-1H-pyrazolo[3,4-d]pyrimidine-4-yl)amino]-22-deoxypleuromutilin]
MBC [1]: 16 µg/mL (≈ 25.8 µM) | MIC [1]: 4 µg/mL (≈ 6.45 µM) | MBC [2]: 32 µg/mL (≈ 51.6 µM) | MIC [2]: 8 µg/mL (≈ 12.9 µM) | MBC ([3]; ATCC29213): 32 µg/mL (≈ 51.6 µM) | MIC ([3]; ATCC29213): 8 µg/mL (≈ 12.9 µM) | melting point: 97 to 99 °C | MBC [4]: 32 µg/mL (≈ 51.6 µM) | MIC [4]: 8 µg/mL (≈ 12.9 µM)

C=C[C@]1(C)C[C@@H](OC(=O)CNc2nc(Cl)nc3c2cnn3-c2ccccc2F)[C@]2(C)[C@H](C)CC[C@]3(CCC(=O)[C@H]32)[C@@H](C)[C@@H]1O [Compound 18b, 22-[(6-Chloro-1-(2-fluorophenyl)-1H-pyrazolo[3,4-d]pyrimidine-4-yl)amino]-22-deoxypleuromutilin]
MIC [1]: > 64 µg/mL | MIC [2]: > 64 µg/mL | MIC ([3]; ATCC29213): > 64 µg/mL | melting point: 107 to 110 °C | MIC [4]: > 64 µg/mL

C=C[C@]1(C)C[C@@H](OC(=O)CNc2nc(Cl)nc3c2cnn3-c2ccc(F)cc2)[C@]2(C)[C@H](C)CC[C@]3(CCC(=O)[C@H]32)[C@@H](C)[C@@H]1O [Compound 19b, 22-[(6-Chloro-1-(4-fluorophenyl)-1H-pyrazolo[3,4-d]pyrimidine-4-yl)amino]-22-deoxypleuromutilin]
MBC ([1]; 24 h): > 64 µg/mL | MIC ([1]; 24 h): 8 µg/mL (≈ 12.8 µM) | MBC [2]: > 64 µg/mL | MIC [2]: 32 µg/mL (≈ 51.3 µM) | MBC ([3]; ATCC29213): > 64 µg/mL | MIC ([3]; ATCC29213): 16 µg/mL (≈ 25.6 µM) | melting point: 112 to 115 °C | MBC [4]: > 64 µg/mL | MIC [4]: 16 µg/mL (≈ 25.6 µM)

C=C[C@]1(C)C[C@@H](OC(=O)CSc2ccc(Nc3nc(Cl)nc4c3cnn4-c3ccc(OC(F)(F)F)cc3)cc2)[C@]2(C)[C@H](C)CC[C@]3(CCC(=O)[C@H]32)[C@@H](C)[C@@H]1O [Compound 23c, 22-[4-(6-Chloro-1-(4-(yrifluoromethoxy)Phenyl)-1H-pyrazolo[3,4-d]pyrimidine-4-yl)amino-Phenylsulfanyl]-22-deoxypleuromutilin]
MBC [1]: 1 µg/mL (≈ 1.25 µM) | MIC [1]: 0.25 µg/mL (≈ 0.313 µM) | MBC [2]: 2 µg/mL (≈ 2.51 µM) | MIC [2]: 1 µg/mL (≈ 1.25 µM) | MBC ([3]; ATCC29213): 1 µg/mL (≈ 1.25 µM) | MIC ([3]; ATCC29213): 0.5 µg/mL (≈ 0.626 µM) | melting point: 144 to 147 °C | MBC [4]: 1 µg/mL (≈ 1.25 µM) | MIC [4]: 0.5 µg/mL (≈ 0.626 µM)

C=C[C@]1(C)C[C@@H](OC(=O)CNc2nc(Cl)nc3c2cnn3-c2cc(C)cc(C)c2)[C@]2(C)[C@H](C)CC[C@]3(CCC(=O)[C@H]32)[C@@H](C)[C@@H]1O [Compound 15b, 22-[(6-Chloro-1-(3,5-dimethylphenyl)-1H-pyrazolo[3,4-d]pyrimidine-4-yl)amino]-22-deoxypleuromutilin]
MIC [1]: > 64 µg/mL | MIC [2]: > 64 µg/mL | MIC ([3]; ATCC29213): > 64 µg/mL | melting point: 95 to 100 °C | MIC [4]: > 64 µg/mL

C=C[C@]1(C)C[C@@H](OC(=O)CNc2nc(Cl)nc3c2cnn3-c2cccc(Cl)c2)[C@]2(C)[C@H](C)CC[C@]3(CCC(=O)[C@H]32)[C@@H](C)[C@@H]1O [Compound 24b, 22-[(6-Chloro-1-(3-chlorophenyl)-1H-pyrazolo[3,4-d]pyrimidine-4-yl)amino]-22-deoxypleuromutilin]
MIC [1]: > 64 µg/mL | MIC [2]: > 64 µg/mL | MIC ([3]; ATCC29213): > 64 µg/mL | melting point: 117 to 119 °C | MIC [4]: > 64 µg/mL

C=C[C@]1(C)C[C@@H](OC(=O)CSc2ccc(Nc3nc(Cl)nc4c3cnn4-c3cc(F)ccc3F)cc2)[C@]2(C)[C@H](C)CC[C@]3(CCC(=O)[C@H]32)[C@@H](C)[C@@H]1O [Compound 21c, 22-[4-(6-Chloro-1-(2,5-difluorophenyl)-1H-pyrazolo[3,4-d]pyrimidine-4-yl)amino-Phenylsulfanyl]-22-deoxypleuromutilin]
MIC [1]: > 64 µg/mL | MIC [2]: > 64 µg/mL | MIC ([3]; ATCC29213): > 64 µg/mL | melting point: 115 to 118 °C | MIC [4]: > 64 µg/mL

C=C[C@]1(C)C[C@@H](OC(=O)CSc2ccc(Nc3nc(Cl)nc4c3cnn4-c3ccc4ccccc4c3)cc2)[C@]2(C)[C@H](C)CC[C@]3(CCC(=O)[C@H]32)[C@@H](C)[C@@H]1O [Compound 28c, 22-[4-(6-Chloro-1-(naphthalen-2-yl)-1H-pyrazolo[3,4-d]pyrimidine-4-yl-yl)amino-Phenylsulfanyl]-22-deoxypleuromutilin]
MIC [1]: > 64 µg/mL | MIC [2]: > 64 µg/mL | MIC ([3]; ATCC29213): > 64 µg/mL | melting point: 115 to 118 °C | MIC [4]: > 64 µg/mL

C=C[C@]1(C)C[C@@H](OC(=O)CNc2nc(Cl)nc3c2cnn3-c2ccc(C)c(C)c2)[C@]2(C)[C@H](C)CC[C@]3(CCC(=O)[C@H]32)[C@@H](C)[C@@H]1O [Compound 14b, 22-[(6-Chloro-1-(3,4-dimethylphenyl)-1H-pyrazolo[3,4-d]pyrimidine-4-yl)amino]-22-deoxypleuromutilin]
MBC [1]: > 64 µg/mL | MIC [1]: 16 µg/mL (≈ 25.2 µM) | MBC [2]: > 64 µg/mL | MIC [2]: 16 µg/mL (≈ 25.2 µM) | MBC ([3]; ATCC29213): > 64 µg/mL | MIC ([3]; ATCC29213): 16 µg/mL (≈ 25.2 µM) | melting point: 99 to 103 °C | MBC [4]: > 64 µg/mL | MIC [4]: 16 µg/mL (≈ 25.2 µM)

C=C[C@]1(C)C[C@@H](OC(=O)CNc2nc(Cl)nc3c2cnn3-c2ccc(F)cc2F)[C@]2(C)[C@H](C)CC[C@]3(CCC(=O)[C@H]32)[C@@H](C)[C@@H]1O [Compound 20b, 22-[(6-Chloro-1-(2,4-difluorophenyl)-1H-pyrazolo[3,4-d]pyrimidine-4-yl)amino]-22-deoxypleuromutilin]
MIC [1]: > 64 µg/mL | MIC [2]: > 64 µg/mL | MIC ([3]; ATCC29213): > 64 µg/mL | melting point: 123 to 125 °C | MIC [4]: > 64 µg/mL

C=C[C@]1(C)C[C@@H](OC(=O)CNc2nc(Cl)nc3c2cnn3-c2cccc([N+](=O)[O-])c2)[C@]2(C)[C@H](C)CC[C@]3(CCC(=O)[C@H]32)[C@@H](C)[C@@H]1O [Compound 27b, 22-[(6-Chloro-1-(3-nitrophenyl)-1H-pyrazolo[3,4-d]pyrimidine-4-yl)amino]-22-deoxypleuromutilin]
MIC [1]: > 64 µg/mL | MIC [2]: > 64 µg/mL | MIC ([3]; ATCC29213): > 64 µg/mL | melting point: 131 to 135 °C | MIC [4]: > 64 µg/mL
